Tested on: 15 different HLA-DR molecules
Assay: HLA-DR binding assays, panel of 15 different HLA-DR molecules (breadth of binding)
Conditions: number of the 15 HLA-DR molecules bound (binders: 1000 nM or better)

Molecule | Total XRN
CC[C@H](C)[C@H](NC(=O)[C@@H](NC(=O)[C@H](Cc1c[nH]cn1)NC(=O)[C@H](CC(C)C)NC(=O)[C@@H](NC(=O)[C@H](CC(C)C)NC(=O)[C@@H](N)Cc1ccccc1)[C@@H](C)O)C(C)C)C(=O)N[C@@H](CCCCN)C(=O)N[C@@H](CO)C(=O)N[C@@H](CC(=O)O)C(=O)N[C@@H](CC(C)C)C(=O)N[C@H](C(=O)N[C@@H](CC(N)=O)C(=O)N[C@@H](CCC(=O)O)C(=O)N[C@@H](CCC(=O)O)C(=O)O)C(C)C [Peptide 9019.0114] | 11
CC[C@H](C)[C@H](NC(=O)[C@H](CC(N)=O)NC(=O)[C@@H]1CCCN1C(=O)[C@@H](NC(=O)[C@H](Cc1ccccc1)NC(=O)[C@H](CC(C)C)NC(=O)[C@H](CCC(=O)O)NC(=O)[C@@H](N)CCC(N)=O)[C@@H](C)CC)C(=O)N[C@H](C(=O)N[C@H](C(=O)N[C@@H](CC(N)=O)C(=O)N[C@@H](CC(N)=O)C(=O)N[C@@H](CO)C(=O)NCC(=O)N[C@@H](CO)C(=O)O)C(C)C)[C@@H](C)O [Peptide 9019.0123] | 9
CC(C)C[C@H](NC(=O)[C@@H](N)Cc1ccc(O)cc1)C(=O)N[C@@H](Cc1c[nH]c2ccccc12)C(=O)N[C@@H](Cc1c[nH]c2ccccc12)C(=O)N[C@H](C(=O)N[C@@H](CC(N)=O)C(=O)N[C@@H](CC(N)=O)C(=O)N[C@@H](CCC(N)=O)C(=O)N[C@@H](CO)C(=O)N[C@@H](CC(C)C)C(=O)N1CCC[C@H]1C(=O)N[C@H](C(=O)N[C@@H](CO)C(=O)N1CCC[C@H]1C(=O)N[C@@H](CCCNC(=N)N)C(=O)O)C(C)C)C(C)C [Peptide 9019.0126] | 10
EVLILVHNLPQHLFQ [Peptide 9019.0107] | 14

Continued, values first:

Total XRN | Molecule
10 | CC(C)C[C@H](NC(=O)[C@H](CO)NC(=O)[C@H](CC(C)C)NC(=O)[C@H](CC(N)=O)NC(=O)[C@@H](NC(=O)CNC(=O)[C@@H]1CCCN1C(=O)[C@H](CCCNC(=N)N)NC(=O)[C@H](Cc1ccc(O)cc1)NC(=O)[C@H](Cc1ccc(O)cc1)NC(=O)[C@@H](NC(=O)[C@H](Cc1ccc(O)cc1)NC(=O)[C@@H](N)CO)[C@@H](C)O)C(C)C)C(=O)N[C@@H](CO)C(=O)N[C@@H](CS)C(=O)O [Peptide 9019.0128]
8 | CC(C)C[C@H](NC(=O)[C@@H]1CCCN1C(=O)[C@H](CC(C)C)NC(=O)[C@H](CC(C)C)NC(=O)[C@@H]1CCCN1C(=O)[C@H](CC(C)C)NC(=O)[C@H](CC(C)C)NC(=O)[C@@H]1CCCN1C(=O)[C@@H]1CCCN1C(=O)[C@@H]1CCCN1C(=O)[C@@H]1CCCN1C(=O)[C@H](CC(C)C)NC(=O)[C@@H]1CCCN1C(=O)[C@H](CC(C)C)NC(=O)[C@H](C)N)C(=O)O [Peptide 9019.0174]
12 | CC[C@H](C)[C@H](NC(=O)[C@H](CCCNC(=N)N)NC(=O)[C@H](CCC(=O)O)NC(=O)[C@H](CC(C)C)NC(=O)[C@@H](NC(=O)[C@H](CCC(N)=O)NC(=O)[C@H](CC(=O)O)NC(=O)[C@@H](N)CC(C)C)C(C)C)C(=O)N[C@@H](CO)C(=O)N[C@H](C(=O)N[C@@H](CCSC)C(=O)N[C@@H](CCCNC(=N)N)C(=O)N[C@@H](CC(C)C)C(=O)N1CCC[C@H]1C(=O)N[C@@H](CC(=O)O)C(=O)O)[C@@H](C)O [Peptide 9019.0189]
6 | CSCC[C@H](NC(=O)[C@H](CCCCN)NC(=O)[C@H](CS)NC(=O)[C@H](CCC(N)=O)NC(=O)[C@H](CCCCN)NC(=O)[C@H](CC(C)C)NC(=O)[C@H](CC(N)=O)NC(=O)[C@H](Cc1ccc(O)cc1)NC(=O)[C@H](CC(C)C)NC(=O)CN)C(=O)N[C@@H](CO)C(=O)N[C@@H](CC(C)C)C(=O)N[C@@H](CC(N)=O)C(=O)NCC(=O)N[C@@H](CCC(N)=O)C(=O)O [Peptide 9019.0191]

— US20140377340A1, “HLA-DR BINDING PEPTIDES AND THEIR USES” (priority 2007, published 2014)
